Test results published in ChEMBL document CHEMBL5120927, “LEGO-Lipophosphonoxins: A Novel Approach in Designing Membrane Targeting Antimicrobials” (J Med Chem, 2022).

system: not listed separately; experiment: Gradient chromatographic hydrophobicity index of the compound at pH 3.7 by HPLC analysis; type: ADME; conditions: not given

| SMILES | CHI |
| --- | --- |
| CCC/C=C\CCOP(=O)(CCN(CCN)CCN)OCCCCCCCOP(=O)(CCN(CCN)CCN)OCC/C=C\CCC.Cl.Cl.Cl.Cl.Cl.Cl (centres undefined) | 37.4 |
| CCC/C=C\CCOP(=O)(CCN(CCCN)CCCN)OCCCCCCCOP(=O)(CCN(CCCN)CCCN)OCC/C=C\CCC.Cl.Cl.Cl.Cl.Cl.Cl (centres undefined) | 31.3 |
| Cl.Cl.Cl.Cl.Cl.Cl.NCCCN(CCCN)CCP(=O)(OCCCOP(=O)(CCN(CCCN)CCCN)OCC1CCCC1)OCC1CCCC1 (centres undefined) | 5 |

system: Staphylococcus aureus; experiment: Antibacterial activity against Staphylococcus aureus ATCC 29213 = CCM 4223 assessed as inhibition of bacterial growth incubated for 24 hrs in presence of BSA by microdilution assay; type: functional; conditions: not given

| SMILES | MIC |
| --- | --- |
| CCC/C=C\CCOP(=O)(CCN(CCN)CCN)OCCCCCCCOP(=O)(CCN(CCN)CCN)OCC/C=C\CCC.Cl.Cl.Cl.Cl.Cl.Cl (centres undefined) | 4 µg/mL |
| CCC/C=C\CCOP(=O)(CCN(CCCN)CCCN)OCCCCCCCOP(=O)(CCN(CCCN)CCCN)OCC/C=C\CCC.Cl.Cl.Cl.Cl.Cl.Cl (centres undefined) | 8 µg/mL |
| Cl.Cl.Cl.Cl.Cl.Cl.NCCCN(CCCN)CCP(=O)(OCCCOP(=O)(CCN(CCCN)CCCN)OCC1CCCC1)OCC1CCCC1 (centres undefined) | > 128 µg/mL |

system: Enterococcus faecium; experiment: Antibacterial activity against vancomycin resistant Enterococcus faecium 419/ANA assessed as reduction in microbial growth incubated for 24 hrs by microdilution assay; type: functional; conditions: not given

| SMILES | MIC |
| --- | --- |
| CCC/C=C\CCOP(=O)(CCN(CCN)CCN)OCCCCCCCOP(=O)(CCN(CCN)CCN)OCC/C=C\CCC.Cl.Cl.Cl.Cl.Cl.Cl (centres undefined) | 128 µg/mL |
| CCC/C=C\CCOP(=O)(CCN(CCCN)CCCN)OCCCCCCCOP(=O)(CCN(CCCN)CCCN)OCC/C=C\CCC.Cl.Cl.Cl.Cl.Cl.Cl (centres undefined) | 128 µg/mL |
| Cl.Cl.Cl.Cl.Cl.Cl.NCCCN(CCCN)CCP(=O)(OCCCOP(=O)(CCN(CCCN)CCCN)OCC1CCCC1)OCC1CCCC1 (centres undefined) | > 128 µg/mL |

system: Pseudomonas aeruginosa; experiment: Antibacterial activity against multidrug-resistant Pseudomonas aeruginosa assessed as reduction in microbial growth incubated for 24 hrs by microdilution assay; type: functional; conditions: not given

| SMILES | MIC |
| --- | --- |
| CCC/C=C\CCOP(=O)(CCN(CCN)CCN)OCCCCCCCOP(=O)(CCN(CCN)CCN)OCC/C=C\CCC.Cl.Cl.Cl.Cl.Cl.Cl (centres undefined) | 32 µg/mL |
| CCC/C=C\CCOP(=O)(CCN(CCCN)CCCN)OCCCCCCCOP(=O)(CCN(CCCN)CCCN)OCC/C=C\CCC.Cl.Cl.Cl.Cl.Cl.Cl (centres undefined) | 128 µg/mL |
| Cl.Cl.Cl.Cl.Cl.Cl.NCCCN(CCCN)CCP(=O)(OCCCOP(=O)(CCN(CCCN)CCCN)OCC1CCCC1)OCC1CCCC1 (centres undefined) | > 128 µg/mL |

system: Escherichia coli; experiment: Antibacterial activity against Escherichia coli ATCC 25922 = CCM 3954 assessed as inhibition of bacterial growth incubated for 24 hrs in presence of BSA by microdilution assay; type: functional; conditions: not given

| SMILES | MIC |
| --- | --- |
| CCC/C=C\CCOP(=O)(CCN(CCN)CCN)OCCCCCCCOP(=O)(CCN(CCN)CCN)OCC/C=C\CCC.Cl.Cl.Cl.Cl.Cl.Cl (centres undefined) | 16 µg/mL |
| CCC/C=C\CCOP(=O)(CCN(CCCN)CCCN)OCCCCCCCOP(=O)(CCN(CCCN)CCCN)OCC/C=C\CCC.Cl.Cl.Cl.Cl.Cl.Cl (centres undefined) | 64 µg/mL |
| Cl.Cl.Cl.Cl.Cl.Cl.NCCCN(CCCN)CCP(=O)(OCCCOP(=O)(CCN(CCCN)CCCN)OCC1CCCC1)OCC1CCCC1 (centres undefined) | > 128 µg/mL |

system: Enterococcus faecalis; experiment: Antibacterial activity against Enterococcus faecalis ATCC 29212 = CCM 4224 assessed as inhibition of bacterial growth incubated for 24 hrs by microdilution assay; type: functional; conditions: not given

| SMILES | MIC |
| --- | --- |
| CCC/C=C\CCOP(=O)(CCN(CCN)CCN)OCCCCCCCOP(=O)(CCN(CCN)CCN)OCC/C=C\CCC.Cl.Cl.Cl.Cl.Cl.Cl (centres undefined) | 16 µg/mL |
| CCC/C=C\CCOP(=O)(CCN(CCCN)CCCN)OCCCCCCCOP(=O)(CCN(CCCN)CCCN)OCC/C=C\CCC.Cl.Cl.Cl.Cl.Cl.Cl (centres undefined) | 64 µg/mL |
| Cl.Cl.Cl.Cl.Cl.Cl.NCCCN(CCCN)CCP(=O)(OCCCOP(=O)(CCN(CCCN)CCCN)OCC1CCCC1)OCC1CCCC1 (centres undefined) | > 128 µg/mL |

system: Staphylococcus epidermidis; experiment: Antibacterial activity against Staphylococcus epidermidis CCM 7221 assessed as inhibition of bacterial growth incubated for 24 hrs by microdilution assay; type: functional; conditions: not given

| SMILES | MIC |
| --- | --- |
| CCC/C=C\CCOP(=O)(CCN(CCN)CCN)OCCCCCCCOP(=O)(CCN(CCN)CCN)OCC/C=C\CCC.Cl.Cl.Cl.Cl.Cl.Cl (centres undefined) | 0.5 µg/mL |
| CCC/C=C\CCOP(=O)(CCN(CCCN)CCCN)OCCCCCCCOP(=O)(CCN(CCCN)CCCN)OCC/C=C\CCC.Cl.Cl.Cl.Cl.Cl.Cl (centres undefined) | 2 µg/mL |
| Cl.Cl.Cl.Cl.Cl.Cl.NCCCN(CCCN)CCP(=O)(OCCCOP(=O)(CCN(CCCN)CCCN)OCC1CCCC1)OCC1CCCC1 (centres undefined) | > 128 µg/mL |

system: Staphylococcus aureus; experiment: Antibacterial activity against Staphylococcus aureus ATCC 29213 = CCM 4223 assessed as inhibition of bacterial growth incubated for 24 hrs by microdilution assay; type: functional; conditions: not given

| SMILES | MIC |
| --- | --- |
| CCC/C=C\CCOP(=O)(CCN(CCN)CCN)OCCCCCCCOP(=O)(CCN(CCN)CCN)OCC/C=C\CCC.Cl.Cl.Cl.Cl.Cl.Cl (centres undefined) | 2 µg/mL |
| CCC/C=C\CCOP(=O)(CCN(CCCN)CCCN)OCCCCCCCOP(=O)(CCN(CCCN)CCCN)OCC/C=C\CCC.Cl.Cl.Cl.Cl.Cl.Cl (centres undefined) | 4 µg/mL |
| Cl.Cl.Cl.Cl.Cl.Cl.NCCCN(CCCN)CCP(=O)(OCCCOP(=O)(CCN(CCCN)CCCN)OCC1CCCC1)OCC1CCCC1 (centres undefined) | > 128 µg/mL |

system: Escherichia coli; experiment: Antibacterial activity against multidrug-resistant Escherichia coli CE5556 expressing CTX-M-15 assessed as reduction in microbial growth incubated for 24 hrs by microdilution assay; type: functional; conditions: not given

| SMILES | MIC |
| --- | --- |
| CCC/C=C\CCOP(=O)(CCN(CCN)CCN)OCCCCCCCOP(=O)(CCN(CCN)CCN)OCC/C=C\CCC.Cl.Cl.Cl.Cl.Cl.Cl (centres undefined) | 32 µg/mL |
| CCC/C=C\CCOP(=O)(CCN(CCCN)CCCN)OCCCCCCCOP(=O)(CCN(CCCN)CCCN)OCC/C=C\CCC.Cl.Cl.Cl.Cl.Cl.Cl (centres undefined) | 16 µg/mL |
| Cl.Cl.Cl.Cl.Cl.Cl.NCCCN(CCCN)CCP(=O)(OCCCOP(=O)(CCN(CCCN)CCCN)OCC1CCCC1)OCC1CCCC1 (centres undefined) | > 128 µg/mL |

system: not listed separately; experiment: Hemolytic activity in human RBC assessed as haemoglobin release measured after 3 hr; type: toxicity, cell-based, Erythrocyte; conditions: red blood cells (erythrocytes)

| SMILES | HC50 at 3 h |
| --- | --- |
| CCC/C=C\CCOP(=O)(CCN(CCN)CCN)OCCCCCCCOP(=O)(CCN(CCN)CCN)OCC/C=C\CCC.Cl.Cl.Cl.Cl.Cl.Cl (centres undefined) | > 500 µg/mL |
| CCC/C=C\CCOP(=O)(CCN(CCCN)CCCN)OCCCCCCCOP(=O)(CCN(CCCN)CCCN)OCC/C=C\CCC.Cl.Cl.Cl.Cl.Cl.Cl (centres undefined) | > 200 µg/mL |
| Cl.Cl.Cl.Cl.Cl.Cl.NCCCN(CCCN)CCP(=O)(OCCCOP(=O)(CCN(CCCN)CCCN)OCC1CCCC1)OCC1CCCC1 (centres undefined) | > 1000 µg/mL |

system: Escherichia coli; experiment: Antibacterial activity against Escherichia coli ATCC 25922 = CCM 3954 assessed as inhibition of bacterial growth incubated for 24 hrs by microdilution assay; type: functional; conditions: not given

| SMILES | MIC |
| --- | --- |
| CCC/C=C\CCOP(=O)(CCN(CCN)CCN)OCCCCCCCOP(=O)(CCN(CCN)CCN)OCC/C=C\CCC.Cl.Cl.Cl.Cl.Cl.Cl (centres undefined) | > 128 µg/mL |
| CCC/C=C\CCOP(=O)(CCN(CCCN)CCCN)OCCCCCCCOP(=O)(CCN(CCCN)CCCN)OCC/C=C\CCC.Cl.Cl.Cl.Cl.Cl.Cl (centres undefined) | 4 µg/mL |
| Cl.Cl.Cl.Cl.Cl.Cl.NCCCN(CCCN)CCP(=O)(OCCCOP(=O)(CCN(CCCN)CCCN)OCC1CCCC1)OCC1CCCC1 (centres undefined) | > 128 µg/mL |

system: Staphylococcus aureus; experiment: Antibacterial activity against methicillin resistant Staphylococcus aureus 4591/A assessed as reduction in microbial growth incubated for 24 hrs by microdilution assay; type: functional; conditions: not given

| SMILES | MIC |
| --- | --- |
| CCC/C=C\CCOP(=O)(CCN(CCN)CCN)OCCCCCCCOP(=O)(CCN(CCN)CCN)OCC/C=C\CCC.Cl.Cl.Cl.Cl.Cl.Cl (centres undefined) | 1 µg/mL |
| CCC/C=C\CCOP(=O)(CCN(CCCN)CCCN)OCCCCCCCOP(=O)(CCN(CCCN)CCCN)OCC/C=C\CCC.Cl.Cl.Cl.Cl.Cl.Cl (centres undefined) | 4 µg/mL |
| Cl.Cl.Cl.Cl.Cl.Cl.NCCCN(CCCN)CCP(=O)(OCCCOP(=O)(CCN(CCCN)CCCN)OCC1CCCC1)OCC1CCCC1 (centres undefined) | > 128 µg/mL |

system: Pseudomonas aeruginosa; experiment: Antibacterial activity against Pseudomonas aeruginosa ATCC 27853 = CCM 3955 assessed as inhibition of bacterial growth incubated for 24 hrs by microdilution assay; type: functional; conditions: not given

| SMILES | MIC |
| --- | --- |
| CCC/C=C\CCOP(=O)(CCN(CCN)CCN)OCCCCCCCOP(=O)(CCN(CCN)CCN)OCC/C=C\CCC.Cl.Cl.Cl.Cl.Cl.Cl (centres undefined) | 32 µg/mL |
| CCC/C=C\CCOP(=O)(CCN(CCCN)CCCN)OCCCCCCCOP(=O)(CCN(CCCN)CCCN)OCC/C=C\CCC.Cl.Cl.Cl.Cl.Cl.Cl (centres undefined) | 128 µg/mL |
| Cl.Cl.Cl.Cl.Cl.Cl.NCCCN(CCCN)CCP(=O)(OCCCOP(=O)(CCN(CCCN)CCCN)OCC1CCCC1)OCC1CCCC1 (centres undefined) | > 128 µg/mL |
